Assay results: article PMC10384610, “Combining nonsense mutation suppression therapy with nonsense-mediated decay inhibition in neurofibromatosis type 1” (Molecular Therapy. Nucleic Acids, 2023)
Where two headings read alike, the source gives them in different places.

Key:
[1] = NF1 minipig (NF1^R1947*/+), in vivo, 30 min
Procedure: Tissues were prepared with a homogenization solution containing collagenase.

NF1^NS/− Schwann cells = test: Western blot of neurofibromin and p-ERK in NF1^NS/− Schwann cells (LOH) treated with nonsense suppression drugs; format: cell-based, minipig; conditions: concentrations of Table S2, 24, 48 or 72 h
Procedure: (§1) Schwann cells were isolated as previously described.[9]^,[18] Sciatic nerve or cutaneous neurofibroma were biopsied from WT or NF1^R1947/+ minipigs and transported in Dulbecco’s Modified Eagle’s Medium (DMEM; Thermo) containing 10% fetal bovine serum (FBS; Thermo) and 1% Antibiotic/Antimycotic (AA; Thermo). In a laminar flow hood, specimens were rinsed in 70% ethanol and phosphate-buffered saline (PBS; VWR 16750-078) by briefly dipping into each solution 10 times. Tissues were minced and incubated at 37°C, 5% CO2 in dissociation media containing DMEM with 10% FBS, 1% AA, 1x collagenase A (Thermo), and 1x dispase II (Roche) overnight in a Petri dish, then transferred to a conical and centrifuged at 270 × g for 5 min. Cells were plated onto a poly-L-lysine (0.05 mg/mL) and laminin-coated (10 μg/mL) six-well plate and cultured in complete media containing DMEM with high-glucose (GIBCO) supplemented with 10% FBS (GIBCO), forskolin (2 μM) (Calbiochem), 1% N2 supplement (Thermo), recombinant human neuregulin-b1 (NRG1) (10 ng/mL) (R&D Systems), and 1% AA. Media was replaced every 2 days. Schwann cells were separated from contaminating fibroblasts via magnetic cell selection, as described.[9]^,[18] Purified Schwann cells were expanded and stored in liquid nitrogen at low passage and vials were thawed immediately prior to use in experiments to maintain low-passage cells.
(§2) For extraction of protein from cells, snap frozen pellets were briefly thawed on ice and resuspended in RIPA buffer (Sigma) containing protease (Sigma) and phosphatase inhibitors (Sigma), then vortexed at 2,000 rpm at 4°C for 20 min, then centrifuged at 4°C for 15 min at 20,000 × g. For extraction of protein from tissues, snap frozen tissues were thawed briefly on ice, then 50 to 80 mg of tissue was transferred to a 2-mL microtube containing ceramic homogenizers (Agilent Technologies) and homogenized using a Bead Blaster (Benchmark Scientific) at 4,260 rpm, 7 m/s linear speed, 3 cycles of 30 s at 4°C. Homogenates were centrifuged at 13,000 rpm for 3 min at 4°C, then supernatants were transferred to new tubes and sonicated at an amplitude of 20A for 10 s at 4°C, vortexed at 2,000 rpm at 4°C for 20 min, then centrifuged at 20,000 × g at 4°C for 15 min.
(§3) Protein lysates from cells or tissues were quantified using a BCA assay (Thermo). Twenty to 30 μg of protein was denatured at 95°C for 5 min and separated by electrophoresis using SDS on 1.5-mm NuPAGE 4–12% Bis-Tris protein gels (Thermo). Protein was transferred to Immun-Blot PVDF Membrane (Bio-Rad) overnight (16–20 h) at 18 V, 4°C. Membranes were cut according to target molecular weights and blocked at room temperature (RT) for 1 h using 5% blocking grade buffer (Bio-Rad) in TBST (Tris-buffered saline, 0.1% Tween 20) (Sigma). Membranes were incubated with primary antibody overnight at 4°C and washed with TBST three times for 5 min at RT, then incubated with horseradish peroxidase-conjugated secondary antibody for 1 h at RT and washed again as described above. All washes and incubations were performed on a rocking platform. Blots were developed with the WesternBright Quantum Kit (Advansta). Bands were imaged using the Li-Cor Odyssey Fc Imaging System, quantified by densitometry, and normalized to HSP90.
Ataluren (MedChem Express) was reconstituted in sterile dimethyl sulfoxide (DMSO) to a stock concentration of 10 mM and stored at −80°C. Cells were seeded in complete media at a density of 0.3 × 10^6 cells/plate in 10-cm plates. Media was changed 24 h later to complete media without AA and containing vehicle or drugs at indicated concentrations. Cells were harvested 24, 48, and 72 h after drug treatment and divided for protein and/or RNA extraction.

NF1^NS/+ Schwann cells = test: Western blot of neurofibromin and p-ERK in NF1^NS/+ Schwann cells treated with nonsense suppression drugs; format: cell-based, minipig; conditions: for neurofibromin increase in NF1^NS/+ Schwann cell cultures: multiple concentrations (Table S2), 24, 48 or 72 h, 3 biological replicates
Procedure: as §1, §2, §3
Ataluren (MedChem Express) was reconstituted in sterile dimethyl sulfoxide (DMSO) to a stock concentration of 10 mM and stored at −80°C. […]

[2] = Tolerability and renal parameters in NF1 minipigs; format: in vivo, minipig; conditions: sc 8.25 mg/kg once daily for 14 days
[3] = murine models of DMD and CF, subcutaneous once daily 34 mg/kg, suppresses PTCs; cited from earlier work
[4] = human patients with DMD or CF, once daily intravenous infusion 7.5–10 mg/kg; cited from earlier work
[5] = tested on: neurofibromin and p-ERK protein levels; test: Pharmacodynamics: western blot of neurofibromin and p-ERK in NF1 minipig tissues; format: in vivo; conditions: treated (n = 5) vs untreated controls (n = 4), sc 8.25 mg/kg daily 14 days
Text: (§4) Tissue samples (skin, sciatic nerve, optic nerve, and cortex) were collected from each animal at the same approximate locations and divided for analysis.

in vivo = conditions: sc
Procedure: Human equivalent doses (HED) were determined by allometric scaling using the standard conversion coefficient (Km), where Km = 1.1 for minipig and HED determination. Consequently, a 7.5-mg/kg human equivalent dose was 8.25 mg/kg. The required volume of drug for each animal was then based on individual body weight and determined on the day of administration.
as §4
Plasma isolations were performed as described in a previous study.[10] Briefly, serial whole blood samples (1.5 mL) were collected from the jugular vein into lithium heparin vacutainer tubes. Samples were immediately transferred to a 1.7-mL microfuge tube and centrifuged at 2,000 × g for 10 min at 4°C. Supernatant (plasma) was transferred to a cryovial and stored at −80°C until analysis. […] Assay analytical measurement ranged from 0.2 to 12 mg/L, and samples with results higher than 12 mg/L were diluted appropriately and re-analyzed. Within-run precision is 0.3% CV, between-day precision is 0.4% CV, and accuracy is 99.8% (correlation coefficient). For each tissue type (skin, sciatic nerve, optic nerve, and cerebral cortex), samples were analyzed commercially using liquid chromatography with tandem mass spectrometry (LC-MS/MS; BioAgilytix, San Diego, CA). […] Standard curves and quality controls were prepared with untreated tissues. Tissues were prepared with a homogenization solution containing collagenase. […] The LC-MS/MS system consisted of a Waters Acquity UPLC (Milford, MA) coupled with a Waters Xevo TQ-S Micro Triple Quad mass spectrometer (Milford, MA). Mass transition data were acquired in electrospray positive ion (ESI^+) mode and captured using MassLynx 4.1 (Waters, Milford, MA).
Pharmacokinetic parameters and measures of systemic exposure included area under the concentration-time curve (AUC; linear up, log down), maximum concentration (Cmax), time to Cmax (Tmax), and half-life (t1/2).

[6] = tested on: NF1^R1947∗ mutation dual luciferase reporter in NF1^NS/− Schwann cells; test: Dual luciferase reporter (DLR) readthrough assay in minipig Schwann cells; format: cell-based; conditions: minipig NF1^NS/− cNF Schwann cells, 48 h, normalized to Renilla
Text: (§5) The NF1^R1497X DLR plasmid was kindly provided by David Bedwell at University of Alabama. The Renilla-NF1-R1947X-Firefly insert contains 30 nucleotides surrounding the premature termination codon in NF1-R1947X inserted between the Renilla and Firefly genes. The 30-base pair readthrough cassette contains NF1^R1497X (G TCGACGGATGCCAAATGACAAAGAGTTGGATCC). Plasmids were amplified in DH5a E. coli using ampicillin selection and purified using a Qiagen miniprep kit, according to the manufacturer’s protocol. To produce stable cell cultures, we used Gateway cloning to transfer the DLR insert to a hygromycin-resistant PiggyBac Sleeping Beauty (PBSB) transposon vector. Briefly, a GBlock containing the DLR insert sequence and attB sites was cloned into the pDONR221 vector using BP clonase to produce pENTR-Renilla-NF1-R1947X-Firefly. This was cloned into the PBSB vector using LR clonase to produce pPBSB-CG-Renilla-NF1-R1947X-Firefly-PGK-Hygro, which was confirmed by DNA sequencing. Schwann cells were grown to 80% confluency and transfected with the PBSB transposon and PB7 (PiggyBac transposase) (5 μg each/ 1million cells) using the Neon electroporation system (Invitrogen #MPK10096). […] The DLR assay system (Promega) was used to detect readthrough, according to the manufacturer’s instructions. Luminescence was measured using the Cytation 5 plate reader. […]

[7] = tested on: NF1^R1947∗ mutation dual luciferase reporter in iPNF95.6 cells; test: Dual luciferase reporter (DLR) readthrough assay in human Schwann cells; format: cell-based; conditions: human Schwann cells iPNF95.6, 48 h, normalized to Renilla
Text: as §5

[8] = set-up: method as in PMID 33978635; conditions: NF1 minipigs compared with WT minipigs; cited from earlier work
[9] = NF1^NS/+ Schwann cells, 100 μg/mL, 48 h

## CNC(C)C1CCC(N)C(OC2C(N)CC(N)C(OC3OCC(C)(O)C(NC)C3O)C2O)O1 (centres unmarked) [gentamicin]
[1]
  difference of mean tissue concentrations from cortex (lowest) to sciatic nerve (highest): up to 8 fold
NF1^NS/− Schwann cells
  nonsense suppression through expression of neurofibromin: no indication of nonsense suppression through expression of neurofibromin
  reduction in p-ERK: not a corresponding reduction in p-ERK
NF1^NS/+ Schwann cells; NF1^NS/+ Schwann cells, 250 or 500 μg/mL, 48 h, not replicated in other cultures
  neurofibromin, dose trend: linear increase in neurofibromin at 48 h in one replicate
NF1^NS/+ Schwann cells
  neurofibromin increase in NF1^NS/+ Schwann cell cultures: not consistent between replicates or did not exhibit a dose- or time-dependent increase
[2]
  tolerability, renal parameters including serum creatinine and blood urea nitrogen: well tolerated with no significant changes in renal parameters
[3]
  peak plasma concentration (Cmax): 40000 to 60000 ng/mL
[4]
  Cmax: 20000 to 40000 ng/mL
[5]
  neurofibromin protein expression in other tissues (cortex, sciatic nerve): no significant change
  p-ERK downregulation in tissues (optic nerve, cortex, sciatic nerve, skin): not significant in any tissues
[5]; p = 0.01
  neurofibromin protein expression in optic nerve tissue: higher
In vivo; NF1 minipig, 8.25 mg/kg, Cmax
  Cmax: 38000 ng/mL
In vivo; NF1 minipig, 8.25 mg/kg, t1/2
  half-life: 1.82 h
In vivo; Ossabaw, minipig, 8.25 mg/kg, mean Cmax
  Cmax: 38000 ng/mL
In vivo; Ossabaw, minipig, 8.25 mg/kg, target Cmax reached
  Cmax: 40000 ng/mL
In vivo; minipig
  changes in PK parameters after 14 days: no significant changes in PK parameters

## O=C(O)c1cccc(-c2noc(-c3ccccc3F)n2)c1 [ataluren]
NF1^NS/− Schwann cells
  nonsense suppression through expression of neurofibromin: no indication of nonsense suppression through expression of neurofibromin
  reduction in p-ERK: not a corresponding reduction in p-ERK

## CN[C@@H]1[C@@H](O)[C@@H](O[C@@H]2[C@@H](O)[C@H](O[C@H]3O[C@H]([C@@H](C)O)[C@@H](O)[C@H](O)[C@H]3N)[C@@H](N)C[C@H]2N)OC[C@]1(C)O [G418]
[6]
  firefly luciferase activity compared with vehicle-treated cells: significant and dose-dependent increase
[7]
  firefly luciferase activity compared with vehicle-treated cells: significant and dose-dependent increase
NF1^NS/− Schwann cells
  nonsense suppression through expression of neurofibromin: no indication of nonsense suppression through expression of neurofibromin
  reduction in p-ERK: not a corresponding reduction in p-ERK
NF1^NS/+ Schwann cells; [9]
  neurofibromin: increased in all three replicates
  p-ERK: paradoxically increased
NF1^NS/+ Schwann cells
  neurofibromin increase in NF1^NS/+ Schwann cell cultures: not consistent between replicates or did not exhibit a dose- or time-dependent increase

## Cn1cnc2c(F)c(Nc3ccc(Br)cc3Cl)c(C(=O)NOCCO)cc21 [selumetinib]
[8]
  concentration in the brain: reaches higher concentrations in the brain of NF1 minipigs compared with WT minipigs
